Assay results: PubChem BioAssay AID2060623 (Molecular Pharmacology Branch, DTP, NCI, 2025)
Where “and” joins values, the source holds several entries; their conditions need not be identical. Equal values may be shown once.

Tested on: 227483-062-R1-J1-PDC complex spheroids with HUVEC/MSC, viability
Experiment: Anticancer human tumor 227483-062-R1-J1-PDC patient-derived pancreatic carcinoma cell line growth inhibition [CLK]
Conditions: for viability, T/C: stronger effect = lower value; active means viability on the fitted dose curve at most 10% of control; inactive means the rest
Excerpt: A high-throughput screen of multi-cell type tumor spheroids was designed to identify active combinations of […] and targeted small molecules. Complex spheroids include a stromal component modeled by human endothelial cells (HUVEC) and fibroblasts modeled by human mesenchymal stem cells (MSCs). The concentration ranges selected for each drug and investigational agent were based upon clinically achievable concentrations if the clinical Cmax of the agent was known.
Compounds. The drugs and investigational agents: cirtuvivint (SM08502; NSC835563), CC-671 (NSC850746), vemurafenib (NSC761431), tapotoclax (NSC804041), sotorasib (NSC818433), adagrasib (NSC831453), MRTX-1133 (NSC836407), BAY2416964 (NSC825713), copanlisib (NSC816437), inavolisib (NSC800729), abemaciclib (NSC768073), osimertinib (NSC779217), entinostat (NSC756642), eltanexor (KPT-8602, NSC794443), venetoclax (NSC766270), ceralasertib (NSC777638), bortezomib (NSC756655), olaparib (NSC753686), talazoparib (NSC767125), alisertib (NSC759677), peposertib (NSC802822), gemcitabine (NSC613327), 5-fluorouracil (NSC19893), SN-38 (NSC673596), oxaliplatin (NSC266046), paclitaxel (NSC125973), and doxorubicin (NSC123127), were obtained from the National Cancer Institute (NCI) Developmental Therapeutics Program Chemical Repository. The FDA-approved anticancer drug set is available from the Developmental Therapeutics Program at https://dtp.cancer.gov/organization/dscb/obtaining/available plates.htm. […] The stock solutions were prepared in dimethyl sulfoxide (DMSO, Sigma-Aldrich, St. Louis, MO, cat. D2650), except for the platinum complexes which were prepared in saline (Quality Biological, Gaithersburg, MD, cat. 114-055-101), at 800-fold the tested concentration and stored at -70 degrees C prior to their use. All drugs and investigational agents were tested over a range starting from a high concentration at or near the clinical Cmax and decreasing in half-log increments. If the clinical Cmax for an agent had not been determined, the highest concentration tested was 10 microM.
Cell Culture. All cells were maintained in an incubator at 37 degrees C and 5% CO2 with 95% humidity. The PDC lines were cultured according to standard operating procedures established by the NCI PDMR. Briefly, all PDCs were thawed and cultured in Matrigel-coated flasks prepared with a working solution of 1X Ham's F-12 nutrient mix, without supplementation (Invitrogen, Waltham, MA, cat. 11765054), 100 U/mL penicillin-streptomycin (Invitrogen, cat. 15140122), and 2.5% Matrigel (Corning Inc., Corning, NY, cat. 354248) for the first three passages. The 947758-054-R-J2-PDC line was cultured in 6B/Colon 1A media, which includes advanced DMEM/F-12 (Thermo Fisher Scientific, cat. 12634028), 10 mM HEPES (Thermo Fisher Scientific, cat. 15630080), 1X GlutaMAX supplement (Thermo Fisher Scientific, cat. 35050061), 0.1 mg/mL primocin (InvivoGen, cat. ant-pm-2), 10% defined fetal bovine serum, heat inactivated (HyClone Laboratories Inc., cat. SH30070.03HI), 1.25 mM N-Acetyl-L-cysteine (Sigma-Aldrich, cat. A9165), 10 mM nicotinamide (Sigma-Aldrich, cat. N0636), 1X B-27 supplement (Thermo Fisher Scientific, cat. 17504044), 1X N-2 supplement (Thermo Fisher Scientific, cat. 17502048), and 10 microM Y-27632 dihydrochloride (Tocris Bioscience, cat. 1254). The 876862-298-R-J1-PDC was cultured in 6E media, which includes all 6B/Colon 1A media components plus 50% L-WRN conditioned media (ATCC, cat. CRL-3276), 50 ng/mL recombinant human EGF recombinant protein (hEGF; Thermo Fisher Scientific, cat. PHG0311), 10 ng/mL recombinant human fibroblast growth factor 10 (hGFG-10; PeproTech, cat. 100-26), 1 ng/mL recombinant human fibroblast growth factor 2 (hFGF-2; PeproTech, cat. 100-18B), and 1 µM prostaglandin E2 (PGE2; Tocris, cat. 2296). The 227483-062-R1-J1-PDC line was cultured in Panc media, containing all 6E components except hFGF-2, with the addition of 500 nM SB-431542 (Selleckchem, cat. S1067) and 10 nM gastrin (Tocris, cat. 3006). […]
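Further: spheroids exposed to compounds for seven days before readout.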
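Wherever viability, T/C is given: percent of DMSO vehicle control luminescence as 100% viability.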

Cn1ncnc1[C@H]1c2n[nH]c(=O)c3cc(F)cc(c23)N[C@@H]1c1ccc(F)cc1 + CN1CCN(c2cc(C(=O)Nc3cc4cc(-c5cnn(C)c5)ccc4cn3)ccn2)CC1
inactive: viability, T/C (second compound 0.0316 µM, first compound 0.000316 µM) 114% | viability, T/C (second compound 0.0316 µM, first compound 0.001 µM) 118% | viability, T/C (second compound 0.0316 µM, first compound 0.00316 µM) 114% | viability, T/C (second compound 0.0316 µM, first compound 0.01 µM) 101% | viability, T/C (second compound 0.0316 µM, first compound 0.0316 µM) 95.3% | viability, T/C (second compound 0.0316 µM, first compound 0.1 µM) 92.3% | viability, T/C (second compound 0.1 µM, first compound 0.000316 µM) 44.2% | viability, T/C (second compound 0.1 µM, first compound 0.001 µM) 66.2% | viability, T/C (second compound 0.1 µM, first compound 0.00316 µM) 53.6% | viability, T/C (second compound 0.1 µM, first compound 0.01 µM) 53.5% | viability, T/C (second compound 0.1 µM, first compound 0.0316 µM) 56.3% | viability, T/C (second compound 0.1 µM, first compound 0.1 µM) 54.8%
active: viability, T/C (second compound 0.316 µM, first compound 0.000316 µM) 3.12% | viability, T/C (second compound 0.316 µM, first compound 0.001 µM) 3.26% | viability, T/C (second compound 0.316 µM, first compound 0.00316 µM) 3.58% | viability, T/C (second compound 0.316 µM, first compound 0.01 µM) 4.15% | viability, T/C (second compound 0.316 µM, first compound 0.0316 µM) 3.29% | viability, T/C (second compound 0.316 µM, first compound 0.1 µM) 4.45% | viability, T/C (second compound 1 µM, first compound 0.000316 µM) 1.25% | viability, T/C (second compound 1 µM, first compound 0.001 µM) 1.34% | viability, T/C (second compound 1 µM, first compound 0.00316 µM) 1.34% | viability, T/C (second compound 1 µM, first compound 0.01 µM) 2.07% | viability, T/C (second compound 1 µM, first compound 0.0316 µM) 1.23% | viability, T/C (second compound 1 µM, first compound 0.1 µM) 1.14% | viability, T/C (second compound 3.16 µM, first compound 0.000316 µM) 1.84% | viability, T/C (second compound 3.16 µM, first compound 0.001 µM) 2.14% | viability, T/C (second compound 3.16 µM, first compound 0.00316 µM) 1.91% | viability, T/C (second compound 3.16 µM, first compound 0.01 µM) 2.43% | viability, T/C (second compound 3.16 µM, first compound 0.0316 µM) 1.6% | viability, T/C (second compound 3.16 µM, first compound 0.1 µM) 1.89% | viability, T/C (second compound 10 µM, first compound 0.000316 µM) 1.14% | viability, T/C (second compound 10 µM, first compound 0.001 µM) 1.09% | viability, T/C (second compound 10 µM, first compound 0.00316 µM) 1.63% | viability, T/C (second compound 10 µM, first compound 0.01 µM) 2.37% | viability, T/C (second compound 10 µM, first compound 0.0316 µM) 1.2% | viability, T/C (second compound 10 µM, first compound 0.1 µM) 1%
< 0.316 nM: IC50 (curve of first compound, second compound 0.316 µM) | IC50 (curve of first compound, second compound 1 µM) | IC50 (curve of first compound, second compound 3.16 µM) | IC50 (curve of first compound, second compound 10 µM)
> 100 nM: IC50 (curve of first compound, second compound 0.0316 µM) | IC50 (curve of first compound, second compound 0.1 µM)

O=c1[nH]cc(F)c(=O)[nH]1
1650 nM and 1700 nM: IC50 (curve of compound)
inactive: viability, T/C (compound 0.0316 µM) 103% and 83.9% | viability, T/C (compound 0.1 µM) 94.2% and 84.8% | viability, T/C (compound 0.316 µM) 97% and 96.9% | viability, T/C (compound 1 µM) 57% | viability, T/C (compound 3.16 µM) 44.8% and 48% | viability, T/C (compound 10 µM) 35.4% and 35.5%

NC(=O)C(=Cn1cnc(-c2cc(C(F)(F)F)cc(C(F)(F)F)c2)n1)c1cncnc1
911 nM and 313 nM: IC50 (curve of compound)
inactive: viability, T/C (compound 0.00949 µM) 78.8% and 82.5% | viability, T/C (compound 0.03 µM) 85.2% and 85.8% | viability, T/C (compound 0.0949 µM) 83.2% and 62.7% | viability, T/C (compound 0.3 µM) 87.1% and 54.1% | viability, T/C (compound 0.949 µM) 48.8% and 28% | viability, T/C (compound 3 µM) 15% and 10.8%
